Experimental data published in publication PMC9352230 (ACS Omega, 2022).
Entries after “also recorded” stand apart in the source; their conditions may differ. One block for each molecule: values may come before it.

What was measured:
ENPP1 [1] = molecular target: T1, ENPP1 (Homo sapiens, UniProt P22413); test: ENPP1 enzyme inhibition assay; format: biochemical
T1 sequence (P22413 1-925): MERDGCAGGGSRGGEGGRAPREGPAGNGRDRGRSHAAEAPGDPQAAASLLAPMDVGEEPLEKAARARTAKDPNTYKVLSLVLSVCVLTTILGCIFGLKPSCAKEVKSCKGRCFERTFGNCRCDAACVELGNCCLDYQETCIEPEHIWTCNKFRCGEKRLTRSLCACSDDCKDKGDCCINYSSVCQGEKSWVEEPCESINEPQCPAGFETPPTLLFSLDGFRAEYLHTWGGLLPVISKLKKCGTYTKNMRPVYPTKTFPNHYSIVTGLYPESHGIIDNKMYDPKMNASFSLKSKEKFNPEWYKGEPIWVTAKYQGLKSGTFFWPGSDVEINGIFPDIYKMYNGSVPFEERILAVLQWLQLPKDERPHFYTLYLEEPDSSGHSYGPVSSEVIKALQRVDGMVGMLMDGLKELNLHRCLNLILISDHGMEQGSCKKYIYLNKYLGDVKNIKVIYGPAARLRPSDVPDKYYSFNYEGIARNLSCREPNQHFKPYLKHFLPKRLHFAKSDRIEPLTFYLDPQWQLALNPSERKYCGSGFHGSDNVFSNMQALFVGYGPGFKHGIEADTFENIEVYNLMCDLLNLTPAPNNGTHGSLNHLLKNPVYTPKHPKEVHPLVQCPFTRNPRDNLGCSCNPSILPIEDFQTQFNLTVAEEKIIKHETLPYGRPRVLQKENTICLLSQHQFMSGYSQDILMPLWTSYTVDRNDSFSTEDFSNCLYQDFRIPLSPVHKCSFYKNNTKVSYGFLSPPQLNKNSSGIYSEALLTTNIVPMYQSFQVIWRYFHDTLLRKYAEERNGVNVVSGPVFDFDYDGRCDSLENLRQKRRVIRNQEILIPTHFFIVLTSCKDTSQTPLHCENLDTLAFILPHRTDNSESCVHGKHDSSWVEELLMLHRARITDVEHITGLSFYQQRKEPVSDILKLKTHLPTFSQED

ENPP3 [2] = molecular target: T2, ENPP3 (Homo sapiens, UniProt O14638); test: ENPP3 enzyme inhibition assay; format: biochemical
T2 sequence (O14638 1-875): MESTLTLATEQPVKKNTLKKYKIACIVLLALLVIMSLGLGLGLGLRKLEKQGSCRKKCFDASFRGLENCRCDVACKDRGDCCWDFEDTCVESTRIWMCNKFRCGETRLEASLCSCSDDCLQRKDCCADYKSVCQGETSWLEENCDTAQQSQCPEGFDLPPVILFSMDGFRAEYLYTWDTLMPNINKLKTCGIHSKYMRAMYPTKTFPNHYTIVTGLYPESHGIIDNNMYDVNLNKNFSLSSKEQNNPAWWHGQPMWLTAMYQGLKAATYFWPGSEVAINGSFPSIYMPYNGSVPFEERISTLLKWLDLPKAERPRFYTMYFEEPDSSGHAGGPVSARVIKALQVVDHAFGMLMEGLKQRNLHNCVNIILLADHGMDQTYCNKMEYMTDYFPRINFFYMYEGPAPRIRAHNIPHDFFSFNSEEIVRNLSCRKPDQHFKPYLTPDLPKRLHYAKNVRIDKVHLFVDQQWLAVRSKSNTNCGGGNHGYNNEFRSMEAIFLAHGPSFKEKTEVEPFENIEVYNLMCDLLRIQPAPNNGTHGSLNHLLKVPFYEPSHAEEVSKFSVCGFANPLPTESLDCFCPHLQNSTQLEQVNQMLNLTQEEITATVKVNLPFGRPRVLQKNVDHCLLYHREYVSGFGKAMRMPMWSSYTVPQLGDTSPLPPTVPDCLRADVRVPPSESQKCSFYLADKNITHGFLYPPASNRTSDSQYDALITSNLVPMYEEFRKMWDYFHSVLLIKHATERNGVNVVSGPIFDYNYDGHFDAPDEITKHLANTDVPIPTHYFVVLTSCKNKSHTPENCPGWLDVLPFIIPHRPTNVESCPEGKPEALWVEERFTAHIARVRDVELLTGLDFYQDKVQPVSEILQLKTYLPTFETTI

ENPP3 [3] = molecular target: T2, ENPP3; test: Enzyme kinetic study, Lineweaver-Burk plots, ENPP3; format: biochemical; conditions: triplicates
[4] = tested on: MCF7 (human breast cancer cell line); test: MTT cytotoxicity assay, MCF7; format: cell-based; conditions: MCF7, 24 h, read-out: MCF7 (% inhibition ±SD)
[5] = tested on: HEK293 (human embryonic kidney cell line); test: MTT cytotoxicity assay, HEK293; format: cell-based; conditions: for inhibition at 100 µM: Homo sapiens, HEK293, 24 h, read-out: HEK293 (% inhibition ±SD)
ENPP1 [6] = conditions: read-out: ENPP1 IC50; selective inhibition of ENPP1; cited from earlier work
ENPP1 [7] = molecular target: T1, ENPP1; test: Enzyme kinetic study, Lineweaver-Burk plots, ENPP1; format: biochemical; conditions: triplicates
[8] = tested on: HeLa (human cervical cancer cell line); test: MTT cytotoxicity assay, HeLa; format: cell-based; conditions: 100 μM compound, 24 h treatment, triplicate

IC50 (ENPP1 [1]): 18900 ± 540 nM | IC50 (ENPP3 [2]): 380 ± 130 nM | mode of inhibition of ENPP3 (ENPP3 [3]): competitively
SMILES: Cc1ccc(S(=O)(=O)Oc2ccc(NC(=O)C3(C)c4ccccc4-c4ccccc43)cc2)cc1 [7e, 4-(9-Methyl-9H-fluorene-9-carboxamido)phenyl 4-Methylbenzenesulfonate]
inhibition at 100 µM [4]: 0.3 ± 0.15% | inhibition at 100 µM [5]: 12.4 ± 1.42%

SMILES: Cc1ccc(S(=O)(=O)Oc2ccc(-c3sc4cc(OS(=O)(=O)c5ccc(C)cc5)ccc4c3C(=O)c3ccc(OCCN4CCCCC4)cc3)cc2)cc1 [3-(4-(2-(piperidin-1-yl)ethoxy)benzoyl)-2-(4-(tosyloxy)phenyl)benzo[b]thiophen-6-yl-4-methylbenzenesulfonate]
IC50 (ENPP1 [6]): 450 nM

IC50 (ENPP1 [1]): 230 ± 30 nM | inhibition at 100 µM (ENPP3 [2]; read-out: ENPP3 % inhibition ± SD): 42.1 ± 3.43%
SMILES: CCCCc1ccc(S(=O)(=O)Oc2ccc(NC(=O)c3ccc(C)cc3)cc2)cc1 [4j, 4-(4-Methylbenzamido)phenyl 4-Butylbenzenesulfonate]
mode of inhibition of ENPP1 (ENPP1 [7]): uncompetitive; also recorded: uncompetitively | inhibition at 100 µM [4]: 13.3 ± 0.73% | inhibition at 100 µM [5]: 27.6 ± 2.55%

SMILES: N.N.[Cl][Pt][Cl] [cisplatin, reference compound]
HeLa cell line (% inhibition ±SD) [8]: 84.3 ± 2.72% | HEK293 (% inhibition ±SD) ([5]; 100 μM compound, MTT, 24 h treatment, triplicate, normal cell line): 65.5 ± 1.48%
